Measured values as given in paper PMC8243516, “Inhibition of lysosomal phospholipase A2 predicts drug-induced phospholipidosis” (Journal of Lipid Research, 2021).

Experiments:
[1] = biological target: T1, LPLA2 (Mus musculus, UniProt Q8VEB4); test: LPLA2 thermal stability measurement (SYPRO Orange Tm); format: binding; settings: N=3 ± SD
T1 construct: purchased Proteos Inc. (Kalamazoo, MI)
T1 sequence (Q8VEB4 34-412): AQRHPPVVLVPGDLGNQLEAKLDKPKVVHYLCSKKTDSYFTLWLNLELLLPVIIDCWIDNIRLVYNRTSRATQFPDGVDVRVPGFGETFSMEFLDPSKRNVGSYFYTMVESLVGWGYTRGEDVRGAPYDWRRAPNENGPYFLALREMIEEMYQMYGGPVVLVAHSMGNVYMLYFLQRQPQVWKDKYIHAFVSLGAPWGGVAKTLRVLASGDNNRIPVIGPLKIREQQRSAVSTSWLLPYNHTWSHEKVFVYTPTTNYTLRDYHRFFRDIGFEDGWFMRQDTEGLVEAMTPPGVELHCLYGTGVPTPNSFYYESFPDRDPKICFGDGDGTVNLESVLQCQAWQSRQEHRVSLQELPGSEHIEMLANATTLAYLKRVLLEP

[2] = ref Pubchem and chEMBL databases; cited from earlier work
[3] = biological target: T2, recombinant mouse LPLA2 (PLA2G15) (Mus musculus, UniProt Q8VEB4); test: Transacylase activity of LPLA2 (1-O-acyl-N-acetylsphingosine synthase, cell-free liposome assay); format: biochemical; settings: 1-O-acyl N-acetylsphingosine synthase activity, pH 4.5, DOPC/sulfatide liposomes; read-out: LPLA2 IC50
T2 construct: purchased Proteos Inc. (Kalamazoo, MI)
T2 sequence (Q8VEB4 34-412): T1 sequence (Q8VEB4 34-412)

[4] = system: phospholipidosis; settings: phospholipidosis reported in vitro; Refs of Table 1; cited from earlier work

Structure (SMILES)	(ΔTm)c-(ΔTm)d, difference in melting temperature of LPLA2 alone or in the presence of drug [1]	IC50 [3]	pKa (basic) [2]	In Vitro PLD [4]
CC1=C(/C=C/C(C)=C/C=C/C(C)=C/CO)C(C)(C)CCC1 [Retinol, (2E,4E,6E,8E)-3,7-dimethyl-9-(2,6,6-trimethylcyclohex-1-en-1-yl)nona-2,4,6,8-tetraen-1-ol]	0.81 ± 0.3 °C	52.5 µM	-2.2	Yes
COC(=O)C1=C(C)NC(C)=C(C(=O)OC(C)(C)CN(C)CCC(c2ccccc2)c2ccccc2)C1c1cccc([N+](=O)[O-])c1 (centres unmarked) [Lercanidipine, 3-{1-[(3,3-diphenylpropyl)(methyl)amino]-2-methylpropan-2-yl} 5-methyl 2,6-dimethyl-4-(3-nitrophenyl)-1,4-dihydropyridine-3,5-dicarboxylate]	0.21 ± 0.3 °C	37.2 µM	9.36	Yes
COc1cc(C(=O)NS(=O)(=O)c2ccccc2C)ccc1Cc1cn(C)c2ccc(NC(=O)OC3CCCC3)cc12 [Zafirlukast, cyclopentyl N-[3-({2-methoxy-4-[(2-methylbenzenesulfonyl)carbamoyl]phenyl}methyl)-1-methyl-1H-indol-5-yl]carbamate]	1.80 ± 0.4 °C	3.1 µM	-1.1	Yes
c1ccc2c(c1)CCc1ccccc1C2 [Dibenzosuberane, 10,11-dihydro-5H-dibenzo [a, d] cycloheptene-833-48-7]	-1.94 ± 0.0 °C	346 µM	10	Yes
CCN(CCCc1ccccc1)CCCc1ccccc1 [Alverine, ethyl bis (3-phenylpropyl)amine]	0.14 ± 0.1 °C	40 µM	10.44	Yes

Further molecules by falling IC50 [3], results first:

(ΔTm)c-(ΔTm)d, difference in melting temperature of LPLA2 alone or in the presence of drug [1]	IC50 [3]	Structure (SMILES)	pKa (basic) [2]	In Vitro PLD [4]
-1.20 ± 0.5 °C	333 µM	CCCCNc1ccc(C(=O)OCCN(C)C)cc1 [Tetracaine, 2-(dimethylamino)ethyl 4-(butylamino)benzoate]	8.42	Yes
0 °C	285 µM	OC(CCN1CCCCC1)(c1ccccc1)c1ccccc1 [Pridinol, 1,1-diphenyl-3-(piperidin-1-yl)propan-1-ol]	9.34	Yes
-0.30 ± 0.1 °C	41.5 µM	CCC(C)(C)c1ccc(CC(C)CN2C[C@@H](C)O[C@@H](C)C2)cc1 (stereo partly drawn) [Amorolfine, 2R,6S-2,6-dimethyl-4-(2-{[4-(2-methylbutan-2-yl)phenyl]methyl}propyl)morpholine]	8.49	Yes
1.26 ± 0.2 °C	30.8 µM	CN(Cc1cc(Br)cc(Br)c1N)C1CCCCC1.Cl [Bromhexine, 2-amino-3,5-dibromo-N-cyclohexyl-N-methylbenzylamine hydrochloride]	9.32	Yes
-0.17 ± 0.0 °C	17.2 µM	O=C(COc1ccc(Cl)cc1)N1CCN(Cc2ccc3c(c2)OCO3)CC1 [Fipexide, 1-(2-[4-chlorophenoxy]acetyl)-4-(3,4-methylenedioxybenzyl)piperazine]	6.09	Yes
-2.0 ± 0.1 °C	7.78 µM	CN(C)CC/C=C1/c2ccccc2Sc2ccc(Cl)cc21 [Chlorprothixene]	9.76	Yes
